Converted amounts (≈) assume the structure as drawn. Where two headings read alike, the source gives them in different places.
What was measured:
Assay in all cases: MIC determination by in vitro antifungal assay
Type in all cases: cell-based
[1] = system: Cryptococcus neoformans ATCC MYA-895 (M); settings: strain M = C. neoformans ATCC MYA-895
Experimental: (§1) 10 mg/mL stock solutions of compounds 1a-9j were prepared in dimethyl sulfoxide (DMSO) and were stored at −20° C. in the dark. The antifungal agent amphotericin B (AmB) was purchased from VWR (Radnor PA, USA). AmB was dissolved in DMSO at a final concentration of 5 mg/mL and was stored at −20° C., protected from light. Candida albicans American Type Culture Collection (ATCC) 10231 (strain A), C. albicans ATCC 64124 (B), and C. albicans ATCC MYA-2876 (C) were obtained from Utah State University. C. albicans ATCC 90819 (D), C. albicans ATCC MYA-2310 (E), C. albicans ATCC MYA-1237 (F), C. albicans ATCC MYA-1003 (G), Candida glabrata ATCC 2001 (H), Candida krusei ATCC 6258 (I), Candida parapsilosis ATCC 22019 (J), Cryptococcus neoformans ATCC MYA-895 (M), Aspergillus terreus ATCC MYA-3633 (N), and Aspergillus flavus ATCC MYA-3631 (0) were obtained from the American Type Culture Collection (ATCC; Manassas, VA, USA). Aspergillus nidulans ATCC 38163 (P) was obtained from University of Kentucky. Clinically derived Aspergillus fumigatus NRRL 163 (Q), A. fumigatus NRRL 5109 (R), and A. fumigatus NRRL 6113 (S) were obtained from Northern Regional Research Laboratory (NRRL). Candida auris 384 (K), C. auris 390 (L), and fungal strains 381-400 (including 10 C. auris (AR Bank #381-390), 3 Candida duobushaemulonii (AR Bank #391, AR Bank #392, and AR Bank #394), 2 Candida haemulonii (AR Bank #393 and AR Bank #395), 1 Kodameae ohmeri (AR Bank #396), 1 C. krusei (AR Bank #397), 1 Candida lusitaniae (AR Bank #398), and 2 Saccharomyces cerevisiae strains (AR Bank #399 and AR Bank #400)) were part of a larger fungal library from the AR Bank maintained by the Centers for Disease Control and Prevention (CDC; Atlanta, GA, USA). Filamentous fungi and yeasts were cultivated at 35° C. in RPMI 1640 medium (with L-glutamine, without sodium bicarbonate, Sigma-Aldrich, St. Louis, MO) buffered to a pH of 7.0 with 0.165 M morpholinepropanesulfonic acid (MOPS) buffer (Sigma-Aldrich). For cytotoxicity assays, HepG2 and the mouse macrophage cell line J774A.1 were obtained from University of Kentucky. The human embryonic kidney cell line, HEK-293, was bought from the ATCC. Mammalian cells were grown in Dulbecco's Modified Eagle's Medium (DMEM) (from VWR) with 10% fetal bovine serum (FBS) (from VWR) and 1% Pen/Strep (from ATCC). Cell lines were cultured at 37° C. with 5% CO2 and passaged by trypsinization with 0.05% trypsin: 0.53 mM EDTA (from Sigma-Aldrich).
(§2) The MIC values of compounds 1a-9j against yeast cells (strains A-P and 381-400) were determined in 96-well plates as described in the CLSI documents M27-A3 and M38-A2 with minor modifications.^2 A single colony of freshly prepared yeast cells was used to inoculate 5 mL of yeast extract peptone dextrose (YPD) broth prior to incubation overnight with shaking at 200 rpm at 35° C. From the actively growing yeast culture, 100 µL were then transferred to 900 μL of RPMI 1640 medium and re-adjusted to achieve OD600 of 0.12 (˜1×10^6 CFU/mL). The cell suspension was further diluted to achieve 1:100 in RPMI 1640 medium. 100 μL of cells were added to the wells of a 96-well microtiter plates that contained 100 µL of the compound solution to obtain concentrations of 0.06-31.3 μg/mL of compounds 1a-9j or AmB prior to incubation for 48 h at 35° C.
(§3) Finally, the activity of these monohydrazides was explored against […] non-Candida strains: Cryptococcus neoformans ATCC MYA-895 (M), Aspergillus terreus ATCC MYA-3633 (N), Aspergillus flavus ATCC MYA-3631 (O), Aspergillus nidulans ATCC 38163 (P), Aspergillus fumigatus NRRL 163 (Q), A. fumigatus NRRL 5109 (R), and A. fumigatus NRRL 6113 (S) (Tables 1A and 1B). The double dilution method was used with concentrations ranging from 0.06 to 31.3 j·tg mL^−1 for monohydrazides 1a-9j, and the commercially available positive antifungal control amphotericin B (AmB).

[2] = system: Aspergillus nidulans ATCC 38163 (P)
Experimental: as §1, §2, §3

[3] = system: Aspergillus flavus ATCC MYA-3631 (O); settings: strain O = A. flavus ATCC MYA-3631
Experimental: as §1, §2, §3

[4] = system: Aspergillus terreus ATCC MYA-3633 (N); settings: strain N = A. terreus ATCC MYA-3633
Experimental: as §1, §2, §3

[5] = system: Candida glabrata ATCC 2001 (H); settings: ATCC 2001 in text
Experimental: as §1
(§4) The MIC values of compounds 1a-9j against yeast cells (strains A-P and 381-400) were determined in 96-well plates as described in the CLSI documents M27-A3 and M38-A2 with minor modifications.^2 A single colony of freshly prepared yeast cells was used to inoculate 5 mL of yeast extract peptone dextrose (YPD) broth prior to incubation overnight with shaking at 200 rpm at 35° C. From the actively growing yeast culture, 100 µL were then transferred to 900 μL of RPMI 1640 medium and re-adjusted to achieve OD600 of 0.12 (˜1×10^6 CFU/mL). The cell suspension was further diluted to achieve 1:100 in RPMI 1640 medium. 100 μL of cells were added to the wells of a 96-well microtiter plates that contained 100 µL of the compound solution to obtain concentrations of 0.06-31.3 μg/mL of compounds 1a-9j or AmB prior to incubation for 48 h at 35° C. […]

[6] = system: Candida krusei ATCC 6258 (I)
Experimental: as §1, §4

[7] = system: Candida parapsilosis ATCC 22019 (J)
Experimental: as §1, §4

[8] = strain P = A. nidulans ATCC 38163
[9] = strain H = C. glabrata ATCC 2004 (footnote)
[10] = strain J = C. parapsilosis ATCC 22019
[11] = Cryptococcus neoformans, read-out: MIC
[12] = Aspergillus nidulans, ATCC38163, strain P = A. nidulans ATCC 38163, read-out: MIC
[13] = Aspergillus flavus, read-out: MIC
[14] = Aspergillus terreus, read-out: MIC
[15] = Nakaseomyces glabratus, ATCC 2001 / ATCC 2004, strain H = C. glabrata ATCC 2004 (footnote), read-out: MIC
[16] = Pichia kudriavzevii, ATCC6258, strain I = C. krusei ATCC 6258, read-out: MIC
[17] = Lodderomyces parapsilosis, ATCC22019, strain J = C. parapsilosis ATCC 22019, read-out: MIC

| Structure (SMILES) | MIC [1] | MIC [2, 8] | MIC [3] | MIC [4] | MIC [5, 9] | MIC ([6]; strain I = C. krusei ATCC 6258) | MIC [7, 10] | MIC [1, 11] | MIC [2, 12] | MIC [3, 13] | MIC [4, 14] | MIC [5, 15] | MIC [6, 16] | MIC [7, 17] |
| --- | --- | --- | --- | --- | --- | --- | --- | --- | --- | --- | --- | --- | --- | --- |
| O=C(NNc1cccc(Cl)c1)c1ccccn1 [Compound 2b] | 0.12 μg/mL^−1 | 0.24 μg/mL^−1 | >31.3 μg/mL^−1 | 0.98 μg/mL^−1 | 1.95 μg/mL^−1 | 0.49 μg/mL^−1 | 1.95 μg/mL^−1 | – | – | – | – | – | – | – |
| COc1cccc(NNC(=O)c2ccccn2)c1 [Compound 2c] | 0.24 μg/mL^−1 | 1.95 μg/mL^−1 | >31.3 μg/mL^−1 | 3.9 μg/mL^−1 | 13.6 μg/mL^−1 | 0.49 μg/mL^−1 | 3.9 μg/mL^−1 | – | – | – | – | – | – | – |
| O=C(NNc1ccc(F)cc1)c1ccccn1 [Compound 2d] | – | – | – | – | – | – | – | 0.24 µg/mL (≈ 1.04 µM) | 0.49 µg/mL (≈ 2.12 µM) | 31.3 µg/mL (≈ 135 µM) | 1.95 µg/mL (≈ 8.43 µM) | 1.95 µg/mL (≈ 8.43 µM) | 0.12 µg/mL (≈ 0.519 µM) | 1.95 µg/mL (≈ 8.43 µM) |
| O=C(NNc1ccc(Cl)cc1)c1ccccn1 [Compound 2e] | 0.49 μg/mL^−1 | 0.49 μg/mL^−1 | 31.3 μg/mL^−1 | 3.9 μg/mL^−1 | 1.95 μg/mL^−1 | 1.95 μg/mL^−1 | 3.9 μg/mL^−1 | – | – | – | – | – | – | – |
| COc1ccc(NNC(=O)c2ccccn2)cc1 [Compound 2f] | – | – | – | – | – | – | – | 0.49 µg/mL (≈ 2.01 µM) | 0.49 µg/mL (≈ 2.01 µM) | > 31.3 µg/mL | 31.3 µg/mL (≈ 129 µM) | 0.98 µg/mL (≈ 4.03 µM) | 0.49 µg/mL (≈ 2.01 µM) | 3.9 µg/mL (≈ 16 µM) |
| O=C(NNc1ccc(F)cc1F)c1ccccn1 [Compound 2g] | – | – | – | – | – | – | – | 0.24 µg/mL (≈ 0.963 µM) | 0.49 µg/mL (≈ 1.97 µM) | 15.6 µg/mL (≈ 62.6 µM) | 0.98 µg/mL (≈ 3.93 µM) | 0.98 µg/mL (≈ 3.93 µM) | 0.49 µg/mL (≈ 1.97 µM) | 1.95 µg/mL (≈ 7.82 µM) |
| O=C(NNc1cc(F)ccc1F)c1ccccn1 [Compound 2h] | – | – | – | – | – | – | – | 0.49 µg/mL (≈ 1.97 µM) | 0.49 µg/mL (≈ 1.97 µM) | 3.9 µg/mL (≈ 15.6 µM) | 0.98 µg/mL (≈ 3.93 µM) | 3.9 µg/mL (≈ 15.6 µM) | 0.24 µg/mL (≈ 0.963 µM) | 3.9 µg/mL (≈ 15.6 µM) |
| O=C(NNc1cc(F)cc(F)c1)c1ccccn1 [Compound 2i] | – | – | – | – | – | – | – | 0.24 µg/mL (≈ 0.963 µM) | 0.49 µg/mL (≈ 1.97 µM) | 1.95 µg/mL (≈ 7.82 µM) | 0.98 µg/mL (≈ 3.93 µM) | 7.8 µg/mL (≈ 31.3 µM) | 0.24 µg/mL (≈ 0.963 µM) | 1.95 µg/mL (≈ 7.82 µM) |
| O=C(NNc1cc(Cl)cc(Cl)c1)c1ccccn1 [Compound 2j] | – | – | – | – | – | – | – | 0.49 µg/mL (≈ 1.74 µM) | 0.49 µg/mL (≈ 1.74 µM) | > 31.3 µg/mL | 1.95 µg/mL (≈ 6.91 µM) | 7.8 µg/mL (≈ 27.6 µM) | 0.98 µg/mL (≈ 3.47 µM) | 1.95 µg/mL (≈ 6.91 µM) |
| O=C(NNc1cccc(F)c1)c1ccc(F)cn1 [Compound 3a] | ≤0.06 μg/mL^−1 | 0.98 μg/mL^−1 | 7.8 μg/mL^−1 | 1.95 μg/mL^−1 | 31.3 μg/mL^−1 | 0.24 μg/mL^−1 | 1.95 μg/mL^−1 | – | – | – | – | – | – | – |
| O=C(NNc1ccc(F)cc1)c1ccc(F)cn1 [Compound 3d] | 0.98 μg/mL^−1 | 0.98 μg/mL^−1 | 15.6 μg/mL^−1 | 3.9 μg/mL^−1 | 15.6 μg/mL^−1 | 0.49 μg/mL^−1 | 3.9 μg/mL^−1 | – | – | – | – | – | – | – |
| O=C(NNc1ccc(Cl)cc1)c1ccc(F)cn1 [Compound 3e] | 3.9 μg/mL^−1 | 15.6 μg/mL^−1 | >31.3 μg/mL^−1 | >31.3 μg/mL^−1 | 7.8 μg/mL^−1 | 0.98 μg/mL^−1 | 31.3 μg/mL^−1 | – | – | – | – | – | – | – |
| COc1ccc(NNC(=O)c2ccc(F)cn2)cc1 [Compound 3f] | ≤0.06 μg/mL^−1 | 1.95 μg/mL^−1 | >31.3 μg/mL^−1 | 31.3 μg/mL^−1 | 1.95 μg/mL^−1 | 0.24 μg/mL^−1 | 3.9 μg/mL^−1 | – | – | – | – | – | – | – |
| O=C(NNc1ccc(F)cc1F)c1ccc(F)cn1 [Compound 3g] | – | – | – | – | – | – | – | 0.98 µg/mL (≈ 3.67 µM) | 0.98 µg/mL (≈ 3.67 µM) | 15.6 µg/mL (≈ 58.4 µM) | 3.9 µg/mL (≈ 14.6 µM) | 31.3 µg/mL (≈ 117 µM) | 0.98 µg/mL (≈ 3.67 µM) | 31.3 µg/mL (≈ 117 µM) |
